Measurements reported in article PMC4766503, “A novel peptide with potent and broad-spectrum antiviral activities against multiple respiratory viruses” (Scientific Reports, 2016).
Peptide text beside a SMILES is read from it.

Columns and labels:
[1] = test system: endosomal acidification in H1N1-infected MDCK cells; assay type: cell-based, canine
[2] = test system: H1N1 virus; conditions: for 50% inhibitory concentration (IC50) against H1N1: virus, 1 h
[3] = target: MERS-CoV S2 (Middle East respiratory syndrome-related coronavirus, UniProt K9N5Q8)
Chain of MERS-CoV S2 (K9N5Q8 752-1353 limits assumed): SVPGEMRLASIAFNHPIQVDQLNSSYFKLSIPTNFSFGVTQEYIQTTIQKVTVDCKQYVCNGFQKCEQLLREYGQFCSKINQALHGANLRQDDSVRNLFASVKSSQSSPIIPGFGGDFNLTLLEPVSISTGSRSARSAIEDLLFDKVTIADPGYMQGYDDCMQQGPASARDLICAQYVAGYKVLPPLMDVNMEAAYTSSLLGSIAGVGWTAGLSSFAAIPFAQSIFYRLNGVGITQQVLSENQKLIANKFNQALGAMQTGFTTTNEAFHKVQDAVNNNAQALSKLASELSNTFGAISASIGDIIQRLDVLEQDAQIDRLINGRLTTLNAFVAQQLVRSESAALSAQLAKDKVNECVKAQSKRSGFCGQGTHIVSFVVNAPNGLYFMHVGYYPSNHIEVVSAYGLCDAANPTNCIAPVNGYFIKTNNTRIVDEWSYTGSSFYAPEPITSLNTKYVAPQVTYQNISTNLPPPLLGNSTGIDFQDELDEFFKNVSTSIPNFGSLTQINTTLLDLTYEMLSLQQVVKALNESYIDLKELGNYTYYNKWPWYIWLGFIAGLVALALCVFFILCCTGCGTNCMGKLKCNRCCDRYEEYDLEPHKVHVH

[4] = in vivo
[5] = test system: HA-cell membrane fusion in 293FT cells expressing HA; conditions: low pH 5.0
[6] = synthetic P9, water
[7] = test system: H7N9 virus; design: species or system BALB/c mice; conditions: mouse, in vivo
[8] = target: MERS-CoV S1 (Middle East respiratory syndrome-related coronavirus, UniProt K9N5Q8)
Chain of MERS-CoV S1 (K9N5Q8 18-751 limits assumed): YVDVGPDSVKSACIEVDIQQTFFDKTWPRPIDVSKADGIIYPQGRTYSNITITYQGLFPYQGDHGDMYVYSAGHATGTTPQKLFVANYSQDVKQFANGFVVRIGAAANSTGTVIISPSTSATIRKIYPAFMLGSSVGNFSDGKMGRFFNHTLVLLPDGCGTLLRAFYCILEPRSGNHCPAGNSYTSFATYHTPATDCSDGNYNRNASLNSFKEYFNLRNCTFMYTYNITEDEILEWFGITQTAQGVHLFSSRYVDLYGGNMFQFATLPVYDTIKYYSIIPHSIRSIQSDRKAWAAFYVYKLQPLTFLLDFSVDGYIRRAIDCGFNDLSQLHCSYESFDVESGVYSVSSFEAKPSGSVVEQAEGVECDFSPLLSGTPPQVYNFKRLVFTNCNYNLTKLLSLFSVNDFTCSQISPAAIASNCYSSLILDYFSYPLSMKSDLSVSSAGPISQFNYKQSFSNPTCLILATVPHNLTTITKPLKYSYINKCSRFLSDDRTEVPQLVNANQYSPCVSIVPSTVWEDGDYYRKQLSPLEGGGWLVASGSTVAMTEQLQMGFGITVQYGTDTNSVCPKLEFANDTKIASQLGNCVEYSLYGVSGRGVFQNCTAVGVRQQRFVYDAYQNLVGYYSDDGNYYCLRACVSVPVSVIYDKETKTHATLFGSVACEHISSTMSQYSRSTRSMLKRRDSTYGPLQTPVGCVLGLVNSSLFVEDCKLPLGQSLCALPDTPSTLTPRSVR

[9] = test system: MERS-CoV
[10] = test system: SARS-CoV
[11] = test system: H5N1 virus; design: species or system BALB/c mice; conditions: mouse, in vivo
[12] = mouse, in vivo
[13] = test system: H1N1 viral NA
[14] = test system: H1N1 virus; design: species or system BALB/c mice; conditions: mouse, in vivo
[15] = test system: MDCK cells; conditions: 24 h
[16] = test system: influenza A virus H3N2, H5N1, H7N7 and H7N9; conditions: H7N7 and H7N9, 24 h
[17] = test system: SARS-CoV; conditions: in vivo
[18] = target: H1N1 viral HA (Influenza A virus, UniProt C3W5S1)
Chain of H1N1 viral HA (C3W5S1 entry or part of it, added parts left off): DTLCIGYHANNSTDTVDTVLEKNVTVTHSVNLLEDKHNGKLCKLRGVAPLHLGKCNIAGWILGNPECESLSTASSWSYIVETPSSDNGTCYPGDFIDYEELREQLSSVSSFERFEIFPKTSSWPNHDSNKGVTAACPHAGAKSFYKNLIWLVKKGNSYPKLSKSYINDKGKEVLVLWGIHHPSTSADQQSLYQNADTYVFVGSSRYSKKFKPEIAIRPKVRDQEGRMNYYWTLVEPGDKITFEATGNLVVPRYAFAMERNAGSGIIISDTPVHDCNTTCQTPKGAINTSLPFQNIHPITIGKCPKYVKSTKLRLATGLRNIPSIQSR

## CC[C@H](C)[C@H](NC(=O)[C@H](C)NC(=O)CNC(=O)[C@@H](N)CC(N)=O)C(=O)N[C@@H](CS)C(=O)N[C@@H](Cc1c[nH]c2ccccc12)C(=O)NCC(=O)N1CCC[C@H]1C(=O)N[C@@H](CS)C(=O)N1CCC[C@H]1C(=O)N[C@H](C(=O)N[C@@H](C)C(=O)N[C@@H](Cc1ccccc1)C(=O)N[C@@H](CCCNC(=N)N)C(=O)N[C@@H](CCC(N)=O)C(=O)N[C@H](C(=O)NCC(=O)N[C@@H](CC(N)=O)C(=O)N[C@@H](CS)C(=O)NCC(=O)N[C@@H](Cc1c[nH]cn1)C(=O)N[C@@H](Cc1ccccc1)C(=O)N[C@@H](CCCCN)C(=O)N[C@H](C(=O)N[C@@H](CCCNC(=N)N)C(=O)N[C@@H](CS)C(=O)N[C@@H](CS)C(=O)N[C@@H](CCCCN)C(=O)N[C@H](C(=O)N[C@@H](CCCNC(=N)N)C(=O)N[C@@H](CC(=O)O)C(=O)N[C@@H](CCC(=O)O)C(=O)N[C@@H](CC(=O)O)C(=O)O)[C@@H](C)CC)C(C)C)[C@@H](C)CC)[C@@H](C)O [Peptide P9-aci-1] (H-NGAICWGPCPTAFRQIGNCGHFKVRCCKIRDED-OH)
[1]
  pH lowering (acidification) in endosomes: unaffected
[2]
  50% inhibitory concentration (IC50) against H1N1: > 100 µg/mL

## CC[C@H](C)[C@H](NC(=O)[C@H](C)NC(=O)CNC(=O)[C@@H](N)CC(N)=O)C(=O)N[C@@H](CS)C(=O)N[C@@H](Cc1c[nH]c2ccccc12)C(=O)NCC(=O)N1CCC[C@H]1C(=O)N[C@@H](CS)C(=O)N1CCC[C@H]1C(=O)N[C@H](C(=O)N[C@@H](C)C(=O)N[C@@H](Cc1ccccc1)C(=O)N[C@@H](CCCNC(=N)N)C(=O)N[C@@H](CCC(N)=O)C(=O)N[C@H](C(=O)NCC(=O)N[C@@H](CC(N)=O)C(=O)N[C@@H](CS)C(=O)NCC(=O)N[C@@H](Cc1c[nH]cn1)C(=O)N[C@@H](Cc1ccccc1)C(=O)N[C@@H](CCCCN)C(=O)N[C@H](C(=O)N[C@@H](CCCNC(=N)N)C(=O)N[C@@H](CS)C(=O)N[C@@H](CS)C(=O)N[C@@H](CCCCN)C(=O)N[C@H](C(=O)N[C@@H](CCCNC(=N)N)C(=O)O)[C@@H](C)CC)C(C)C)[C@@H](C)CC)[C@@H](C)O [Peptide P9] (H-NGAICWGPCPTAFRQIGNCGHFKVRCCKIR-OH)
[3]
  binding to S2 of MERS-CoV: bound to S2
[4]
  P9 signal on surface of mouse bronchial tubes after administration: almost undetectable level
[5]
  HA-cell membrane fusion (polykaryon formation): did not directly inhibit
[6]
  solubility and stability in water: highly soluble and stable in water
[7]
  mice protected from lethal H7N9 challenge, prophylaxis: 50%
  mice protected from lethal H7N9 challenge, therapy: 50%
[8]
  binding to S1 of MERS-CoV: not S1
[9]
  inhibition of MERS-CoV infection: more than 95%
[9]; 24 h
  IC50 against MERS-CoV: about 5 μg/ml
[10]
  inhibition of SARS-CoV infection: more than 95%
[10]; 24 h
  IC50 against SARS-CoV: about 5 μg/ml
[11]
  mice protected from lethal H5N1 challenge, prophylaxis: 44%
  mice protected from lethal H5N1 challenge, therapy: 50%
[12]
  food consumption or sickness: no obvious reduction of food consumption or sickness
[12]; 50 mg/kg
  body weight loss, i.n.: less than 10%
[12]; ip, 500 mg/kg
  body weight loss, i.p.: less than 10%
[13]
  binding to NA: not NA
[14]
  mice protected from lethal challenge, P9 given 2 h before challenge: 60%
  mice protected from lethal challenge, P9 given 4 h before challenge: 30%
  mice protected from lethal challenge, P9 given 8 h before challenge: 20%
  survival rate, prophylactic: 100%
  survival rate, therapeutic: 60%
  viral loads in lung tissues: significantly lower
[15]
  50% toxic concentration (TC50): 380 µg/mL
[16]
  IC50s against H3N2, H5N1, H7N7 and H7N9: 1.5 to 4.8 µg/mL
[17]
  virus infection in mouse lungs: significantly inhibited
[1]
  pH lowering (acidification) in endosomes: acidification was abolished
[2]
  antiviral activity among short peptides: strongest antiviral activity
  50% inhibitory concentration (IC50) against H1N1: 1.2 µg/mL
[18]
  binding to HA: bound to HA

## CO/C1=C\C(C)=C\[C@@H](C)[C@@H](O)[C@@H](C)C/C(C)=C/C=C/[C@H](OC)[C@@H]([C@@H](C)[C@@H](O)[C@H](C)[C@@]2(O)C[C@@H](O)[C@H](C)[C@@H](C(C)C)O2)OC1=O [Bafilomycin A1, reference compound]
[1]
  pH lowering (acidification) in endosomes: acidification was abolished

## Cl.N [NH4Cl, ammonium chloride, reference compound]
[1]
  pH lowering (acidification) in endosomes: acidification was abolished

## CC(=O)N[C@H]1[C@H]([C@H](O)[C@H](O)CO)OC(C(=O)O)=C[C@@H]1N=C(N)N [Zanamivir, reference compound]
[7]
  mice protected from lethal H7N9 challenge, prophylaxis: 60%
  mice protected from lethal H7N9 challenge, therapy: 70%
[11]
  mice protected from lethal H5N1 challenge, prophylaxis: 50%
  mice protected from lethal H5N1 challenge, therapy: 60%
[14]
  survival rate, therapeutic: 80%
